In publication PMC7904827 (Scientific Reports, 2021):
Counter-ions that a name gives are not always drawn.

Tests used:
[1] = Incubation in DMEM in an incubator (5% CO2, 37 °C) without cells; assay type: in vitro ADME; conditions: 100 µM
Description: Herein, incubations were performed in DMEM (100 μM) in a CelCulture Incubator (5% CO2, 37 °C, ESCO, USA) to mimic the conditions of the in vitro cytoprotective assay, and the results were compared to those from the saline buffer (116 mM NaCl, 5.3 mM KCl, 1.2 mM MgSO4, 1 mM CaCl2, 1.13 mM NaH2PO4, 5 mM glucose, and 20 mM HEPES, pH = 7.4).
(§1) From all of the above described experiments, samples were taken at predefined intervals, treated and immediately analyzed. All experiments were performed in four replicates, and the results are expressed as the mean ± SD.

[2] = test system: neonatal ventricular cardiomyocytes (NVCMs); assay: Toxicity of the prodrugs alone in NVCMs (LDH release); assay type: cell-based, rat
Description: (§2) After 3 h, DAU solution (1.2 µM) was added to the media. After another 3 h, the medium was replaced with new (drug-free) exposure medium, and the cardiomyocytes were then kept until the end of the experiment. In addition to cytoprotective properties, the toxicity of the studied agent was also examined; this experiment was performed as described above with only the DAU addition step omitted.
(§3) Forty-five hours after the last medium exchange, a sample of medium was taken from each well to assess lactate dehydrogenase (LDH) activity[27]–[29]. For details, see the Supplementary material.
(§4) 1.5 LDH activity evaluation
(§5) The control wells were treated with lysis buffer (0.1 M potassium phosphate, 1% Triton
(§6) X-100, 1 mM DTT, 2 mM EDTA; pH 7.8; 15 min; room temperature) to measure the total
(§7) cellular LDH level (sum of the activity in the control medium and the lysate). The activity of
(§8) LDH was assayed in Tris-HCl buffer (pH 8.9) containing 35 mM sodium lactate and 5 mM
(§9) NAD+. The rate of NAD+ reduction was monitored spectrophotometrically at 340 nm for 2 min.
(§10) The slope of the linear region and molar absorption coefficient e = 6.22*10 3 M/cm were used
(§11) to calculate the LDH activity, and the data were expressed as a percentage of total L DH activity. […]

[3] = test system: neonatal ventricular cardiomyocytes (NVCMs); assay: In vitro cardioprotection bioassay against daunorubicin toxicity (LDH release); assay type: cell-based, rat; conditions: 3 h preincubation, DAU 1.2 µM, LDH release after 48 h
Description: NVCMs were isolated in-house from 1- to 3-day-old Wistar rats as described previously. The use of animals and experimental protocols were approved by Charles University, Faculty of Pharmacy Animal Welfare Committee. All experiments were performed in accordance with Directive 2010/63/EU on the Protection of Animals Used for Scientific Purposes and in compliance with Animal Research: Reporting of In Vivo Experiments (ARRIVE) guidelines. Newly isolated cardiomyocytes were left for 40 h to form a monolayer of spontaneously beating cardiomyocytes in seeding medium (DMEM/F12 supplemented with 10% HS, 5% FBS, 4% PYR and 1% P/S), which was then replaced with culture medium (DMEM/F12 supplemented with 5% FBS, 4% PYR and 1% P/S). The medium was replaced again after 24 h for new culture medium.
as §2, §3, §4, §5, §6, §7, §8, §9, §10, §11

[4] = ICRF-193 release from GK-667 in rabbit plasma in vitro; assay type: in vitro ADME; conditions: GK-667 10 and 100 µM, 37 °C
Description: as §1

[5] = Approximate solubility in distilled water at room temperature; assay type: physicochemical; conditions: distilled water, room temperature
Description: The syntheses of the target prodrugs were performed according to a known three-step procedure with some modifications. Target prodrugs GK-667, GK-678 and GK-691 were obtained in 34%, 37% and 17% overall yields, respectively. […] The resulting solutions remained physically stable for at least two hours at room temperature.

[6] = In vivo pharmacokinetic study of GK-667 in rabbits, noncompartmental analysis; parameters: species or system rabbit
Description: (§12) GK-667 was freshly dissolved in saline (5 mg/mL) before each administration. New Zealand White male rabbits (n = 6, ∼3.8 kg) received GK-667 (5 mg/kg) administered as a single slow (2 min) intravenous dose bolus to the ear marginal vein. Blood (∼1 mL) was sampled from veins on the contralateral ear at selected time points after drug administration (5 min to 9 h) into BD Vacutainers (BD Biosciences, Plymouth, UK) containing lithium heparin. Collected blood samples were immediately centrifuged (2 min, 3000 rpm, 4 °C), and plasma samples were harvested directly.
Plasma samples taken 0 to 20 min after GK-667 administration were immediately processed by the addition of formic acid and precipitation with ice-cold methanol. The supernatants were then analyzed for all analytes, including the intact prodrug. This was essential to ensure the appropriate determination of highly labile GK-667 at the first sampling intervals, and the whole procedure was validated for this purpose. […] Thus, all following plasma samples were immediately shock-frozen in liquid nitrogen and stored at -80 °C until analysis.
For drug administration and blood sampling, light anesthesia was induced in rabbits with a mixture of ketamine (25 mg/kg, i.m.) and midazolam (2.5 mg/kg, i.m.); sedation was then maintained with midazolam when needed. The blood withdrawn from the animals was compensated with an appropriate volume of sterile saline. All in vivo experiments and procedures were approved and supervised by the Animal Welfare Committee of the Faculty of Medicine in Hradec Kralove (Charles University), and the experiments were performed in compliance with the ARRIVE guidelines.
Standard noncompartmental analysis was performed using Kinetica software (version 4.0, Thermo Fisher Scientific Inc., USA). The population parameter estimation for nonlinear mixed effect models was conducted using Monolix version 2019R2 software (Antony, France: Lixoft SAS, 2019, http://lixoft.com/products/monolix/). The stochastic approximation expectation maximization (SAEM) algorithm coupled with Markov Chain Monte Carlo (MCMC) without the use of approximations (linearization) was used for the estimation of the likelihood. For evaluation of the goodness-of-fit, the following plots were assessed: observed versus individual predicted concentrations, weighted residuals versus time and weighted residuals versus predictions. Individual parameter values were obtained as empirical Bayes estimates. A visual predictive check with 1000 simulated data sets was performed.

[7] = Solubility and stability of the GK-667 dosing solution in saline; assay type: physicochemical
Description: This dose of the prodrug was easily soluble in a commercially available saline solution (sodium chloride 0.9%, B-Braun, Germany) at a concentration of 5 mg/mL, which is convenient for administration to rabbits as an experimental animal model and could also be used for future pharmacodynamics experiments.
as §12

C[C@H]([C@H](C)N1CC(=O)N(COC(=O)CN)C(=O)C1)N1CC(=O)N(COC(=O)CN)C(=O)C1 [GK-667, meso-2,3-bis(4-(2-aminoacetoxymethyl)-3,5-dioxopiperazin-1-yl)butane tetrahydrochloride]
degradation in DMEM without cells [1]: rapidly degraded
cytotoxicity of the prodrug alone towards NVCMs ([2]; LDH release, without DAU): nontoxic on its own
LDH release, statistical significance compared to control ([2]; prodrug alone 1–100 µM, NVCMs, n.s. or c in Fig. S2): n.s.
lowest concentration with significant protection against DAU-induced toxicity [3]: matched the results of ICRF-193
metabolism of the prodrug in plasma [4]: rapidly metabolized
solubility [5]: ~20 mg/mL
Cmax ([6]; male, New Zealand White, rabbit, plasma, iv, 5 mg/kg, rabbits n = 6, GK-667 5 mg/kg i.v., NCA): 2700 nM
Tmax ([6]; male, New Zealand White, rabbit, plasma, iv, rabbits n = 6, GK-667 5 mg/kg i.v., NCA, read-out: Tmax (converted)): 5 min
concentration at 5 min ([6]; male, New Zealand White, rabbit, plasma, iv, rabbits, GK-667 5 mg/kg i.v., 5th min, read-out: mean plasma concentration of the prodrug): 2700 nM
concentration at 10 min ([6]; male, New Zealand White, rabbit, plasma, iv, rabbits, GK-667 5 mg/kg i.v., 10th min, read-out: mean plasma concentration of the prodrug): 400 nM
concentration at 20 min ([6]; male, New Zealand White, rabbit, plasma, iv, rabbits, GK-667 5 mg/kg i.v., 20 min, in all but one animal, read-out: plasma concentration of the prodrug (below LLOQ)): < 100 nM
time to essentially complete clearance of the parent compound from plasma ([6]; rabbits, after injection of GK-667): ≤ 10 min
time the saline solution stays physically and chemically stable ([7]; 5 mg/mL in saline, 20 °C): at least 1 h
GK-667 concentration remaining in saline solution ([7]; 5 mg/mL in saline, 20 °C, 1 h): ≥ 95 % of the initial amount
solubility ([7]; saline (sodium chloride 0.9%)): ≥ 5 mg/mL
